According to paper PMC6482291, “Anticonvulsant Activity of Pterostilbene in Zebrafish and Mouse Acute Seizure Tests” (Neurochemical Research, 2019):
Like-named read-outs stand apart in the source and are kept apart here.

Legend:
mice = assay: Forced swim test; assay type: in vivo; conditions: PTE 50 to 200 mg/kg ip, data not shown
Method: The forced swim test was carried out according to the method described by Porsolt et al. to assess antidepressant properties of PTE. Mice were placed individually in a glass cylinder (25 cm high; 10 cm diameter) containing tap water to a depth of 11 cm. Water was maintained at temperature of 23–25 °C. Mice were permitted to swim for 6 min and duration of their immobility was recorded during the last 4 min of the test by a trained experimenter who was blinded to the treatment. Immobility time was recorded using cumulative stopwatches. Mouse was considered to be immobile when it was floating in the water without struggling and making no attempts to escape, it was making only these movements necessary to keep its head above the water. After each trial, the water in the cylinder was replaced with fresh water. Experimental groups consisted of 10 animals.
Data obtained in the forced swim test were expressed as the mean (in s) + SEM immobility time in each experimental group. Results were analyzed by one-way ANOVA.

[1] = system: GABA-induced chloride currents; design: method as in PMID 24462176; conditions: cited from earlier work
[2] = Determination of PTE in mouse serum and brain tissue and pharmacokinetic analysis; assay type: in vivo; conditions: mice, 50 mg/kg ip; for Kp: brain/serum, ip, 50 mg/kg; for concentration at 15 min / concentration at 30 min / concentration at 60 min / concentration at 120 min / concentration at 240 min: mean ± SEM; for MRT: read-out: MRT (mean residence time); for half-life: read-out: t0.5 λz (terminal half-life) (converted); for Tmax: read-out: time of peak concentration following dosing (converted); for k el: read-out: λz (terminal elimination rate constant) (converted)
Method: In order to isolate PTE from biological samples, brains were homogenized in distilled water (1:4, w/v) with a tissue homogenizer TH220 (Omni International, Inc., Warrenton, VA, USA). Aliquots of 0.2–0.3 ml of serum or 0.5–1 ml of brain homogenate were spiked with 10 µl of internal standard (IS) solution containing clonazepam at concentration of 10 µg/ml and vortexed (Reax top, Heidolph, Germany) for 10 s. Both serum samples and brain homogenates were extracted with 3 ml of a mixture of ethyl acetate:hexane (30:70, v/v) for 20 min on a shaker (VXR Vibrax, IKA, Germany). After centrifugation (Universal 32, Hettich, Germany) at 3000 rpm for 15 min, the organic layers ware transferred to new tubes and evaporated to dryness at 37 °C under a gentle stream of nitrogen. The residues were dissolved in 100 µl of methanol and aliquots of 10–50 µl of the solution were injected into the HPLC system. The analysis was performed on a 250 × 4.6 mm LiChrospher®100 RP-18 column with a particle size of 5 µm (Merck, Darmstadt, Germany) protected with a guard column (4 × 4 mm) with the same packing material. The mobile phase was composed of deionized water and acetonitrile mixed at a ratio of 50:50 (v/v) and pumped at a flow rate of 1 ml/min. The column temperature was maintained at 21 °C. The HPLC system (Merck-Hitachi, Darmstadt, Germany) consisted of an L-7100 isocratic pump, an L-7200 autosampler, and a UV variable-wavelength K-2600 detector (Knauer, Berlin, Germany) operating at 321 nm. D-7000 HSM software was used for data acquisition and processing. In these conditions, the retention times of IS and PTE were approximately 5.3 and 12.8 min. The calibration curve constructed by plotting the ratio of the peak area of PTE to IS vs PTE concentrations was linear in the tested concentration ranges. The limit of quantification of the analytical method was 5 ng/ml (or ng/g tissue). […] The extraction efficiencies of PTE and IS were higher than 90%.
Serum and total brain concentrations of PTE were determined in groups consisted of 8 animals. Pharmacokinetic parameters were calculated using non-compartmental analysis in Phoenix WinNonlin v. 7.0 (Pharsight Corporation, a Certara Company, Princeton, NJ, USA).

[3] = mouse, brain, read-out: Concentration of PTE in brain tissue
[4] = mouse, serum, read-out: Concentration of PTE in serum

For `COc1cc(/C=C/c2ccc(O)cc2)cc(OC)c1` [PTE, trans-3,5-dimethoxy-4′-hydroxy-trans-stilbene], the “immobility time vs control” value (mice) is listed as “did not significantly reduce”, the “effect on GABA-induced chloride currents” value [1] is listed as “enhances” and the “AUC0–24” value ([2]; brain) is listed as 11.64 µg·h/g. The Kp ([2]; mouse, read-out: brain-to-serum AUC ratio) was 5.15, the Kp ([2]; mouse, read-out: brain-to-serum Cmax ratio) was 6 and the concentration at 15 min [2, 3] was 13100 ± 1820 ng/g. The concentration at 30 min [2, 3] was 9920 ± 1100 ng/g, the concentration at 60 min [2, 3] was 3500 ± 440 ng/g and the concentration at 120 min [2, 3] was 820 ± 140 ng/g. It also gave a concentration at 240 min [2, 3] of 180 ± 60 ng/g, a concentration at 15 min [2, 4] of 1760 ± 230 ng/mL and a concentration at 30 min [2, 4] of 1080 ± 160 ng/mL. The concentration at 60 min [2, 4] was 550 ± 70 ng/mL, the concentration at 120 min [2, 4] was 210 ± 30 ng/mL and the concentration at 240 min [2, 4] was 100 ± 60 ng/mL. The Cmax ([2]; mouse, brain) was 13100 ng/g, the MRT ([2]; mouse, brain) was 1.09 h and the half-life ([2]; mouse, brain) was 1.82 h. The Tmax ([2]; mouse, brain) was 0.25 h, the k el ([2]; mouse, brain) was 0.000106 s⁻¹ and the Cmax ([2]; mouse, serum) was 2190 ng/mL. It also gave an AUC(0-t) ([2]; mouse, serum, read-out: AUC0–24) of 2260 ng·h/mL, an MRT ([2]; mouse, serum) of 2.62 h and a half-life ([2]; mouse, serum) of 2.64 h. It also gave a Tmax ([2]; mouse, serum) of 0.25 h and a k el ([2]; mouse, serum) of 7.22e-05 s⁻¹.
